Results as given in US9328138B2 (priority 2011, dated 2016).

Key:
[1] = target: T1, HCV genotype 1b (BK) NS3 modified enzyme with a R155K mutation (Hepatitis C virus genotype 1b, UniProt P26663, R1181K); assay: HCV NS3 protease time-resolved fluorescence (TRF) assay, genotype 1b R155K; assay type: biochemical; settings: Ki 1b R155K
T1 construct: HCV genotype 1b (BK) NS3 modified enzyme
Procedure, shortened: (§1)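 Inhibitor titrations are mixed with NS3/NS4A in pH 7.5 HEPES buffer containing 10 mM DTT and 15% glycerol for 10 min before substrate (25 nM final) is added. After 6 h at room temperature, delayed fluorescence is read and fitted to a four-parameter curve for IC50.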

[2] = target: HCV NS3 protease genotype 3a (3A-1) (Hepatitis C virus genotype 3a, UniProt Q81258); assay: HCV NS3 protease time-resolved fluorescence (TRF) assay, genotype 3a; assay type: biochemical; settings: Ki 3a
Procedure, shortened: as §1

[3] = genotype 1b (BK) NS3 R155K, single value
[4] = first of two values printed in the cell (not explained)
[5] = second of two values printed in the cell (not explained)

Row | SMILES | Ki [1, 3] [nM] | Ki [2] [nM] | Ki [1, 4] [nM] | Ki [1, 5] [nM]
1 | C=C[C@@H]1C[C@]1(NC(=O)[C@@H]1C[C@@H]2CN1C(=O)[C@H](C1CCCC1)NC(=O)O[C@@H]1CCC[C@H]1CC/C=C/Cc1c(nc3ccccc3c1OCCC(C)(C)O)O2)C(=O)NS(=O)(=O)C1(C)CC1 [Example 49, (3aR,7S,10S,12R,21E,24aS)-7-cyclopentyl-N-[(1R,2S)-2-ethenyl-1-{[(1-methylcyclopropyl)sulfonyl]carbamoyl}cyclopropyl]-19-(3-hydroxy-3-methylbutoxy)-5,8-dioxo-1,2,3,3a,5,6,7,8,11,12,20,23,24,24a-tetradecahydro-10H-9,12-methanocyclo penta[18,19][1,10,3,6]dioxadiazacyclo nonadecino[11,12-b]quinoline-10-carboxamide] | 0.16 | 1.5 |  | 
2 | C=C[C@@H]1C[C@]1(NC(=O)[C@@H]1C[C@@H]2CN1C(=O)[C@H](C(C)(C)C)NC(=O)O[C@@H]1C[C@H]1CCCCCc1c(nc3cc(C)ccc3c1OCCCN1CC[C@H](N(C)C)C1)O2)C(=O)NS(=O)(=O)C1(C)CC1 [Example 148, (1aR,5S,8S,10R,22aR)-5-tert-butyl-17-{3-[(3S)-3-(dimethylamino)pyrrolidin-1-yl]propoxy}-N-[(1R,2S)-2-ethenyl-1-{[(1-methylcyclopropyl)ulfonyl]carbamoyl}cyclopropyl]-14-methyl-3,6-dioxo-1,1a,3,4,5,6,9,10,18,19,20,21,22,22a-tetradecahydro-8H-7,10-methanocyclopropa[18,19] [1,10,3,6]dioxadiazacyclononadecino [11,12-b]quinoline-8-carboxamide] | 0.065 | 0.74 |  | 
3 | C=C[C@@H]1C[C@]1(NC(=O)[C@@H]1C[C@@H]2CN1C(=O)[C@H](C(C)(C)C)NC(=O)O[C@@H]1C[C@H]1CCCCCc1c(nc3ccccc3c1OC1CC3CCC(C1)N3CCOC)O2)C(=O)NS(=O)(=O)C1(C)CC1 (single isomer, unassigned) [Example 276] |  | 0.14 | 0.013 | 0.019
4 | C=CC1C[C@]1(NC(=O)[C@@H]1C[C@@H]2CN1C(=O)[C@H](C1CCCC1)NC(=O)O[C@@H]1CCC[C@H]1CC/C=C/Cc1c(nc3ccccc3c1OCCN1C(=O)CCC1=O)O2)C(=O)NS(=O)(=O)C1CC1 (stereo partly drawn) [Example 76, (3aR,7S,10S,12R,21E,24a)-7-cyclo pentyl-N-{(1R,2S)-1-[(cyclopropylsulfonyl)carbamoyl]-2-ethenylcyclopropyl}-19-[2-(2,5-dioxopyrrolidin-1-yl)ethoxy]-5,8-dioxo-1,2,3,3a,5,6,7,8,11,12,20,23,24,24a-tetradeca hydro-10H-9,12-methanocyclopenta[18,19][1,10,3,6] dioxadiazacyclononadecino[11,12-b] quinoline-10-carboxamide] | 0.09 | 0.71 |  | 
5 | C=C[C@@H]1C[C@]1(NC(=O)[C@@H]1C[C@@H]2CN1C(=O)[C@H](C1CCCC1)NC(=O)O[C@@H]1C[C@H]1CCCCCc1c(nc3ccccc3c1OC)O2)C(=O)NS(=O)(=O)C1CC1 [Example 28, (1aR,5S,8S,10R,22aR)-5-cyclo pentyl-N-{(1R,2S)-1-[(cyclopropylsulfonyl)carbamoyl]-2-ethenylcyclopropyl}-17-methoxy-3,6-dioxo-1,1a, 3,4,5,6,9,10,18,19,20,21,22,22a-tetradecahydro-8H-7,10-methanocyclopropa[18,19][1,10,3,6] dioxadiazacyclononadecino[11,12-b]quinoline-8-carboxamide] | 0.7 | 35 |  | 
6 | C=C[C@@H]1C[C@]1(NC(=O)[C@@H]1C[C@@H]2CN1C(=O)[C@H](C(C)(C)C)NC(=O)O[C@@H]1C[C@H]1CCCCCc1c(nc3ccccc3c1OCCCCN1CCOCC1)O2)C(=O)NS(=O)(=O)C1(C)CC1 [Example 150, (1aR,5S,8S,10R,22aR)-5-tert-butyl-N-[(1R,2S)-2-ethenyl-1-{[(1-methylcyclopropyl)sulfonyl]carbamoyl}cyclopropyl]-17-[4-(morpholin-4-yl)butoxy]-3,6-dioxo-1,1a,3,4,5,6,9,10,18,19,20,21, 22,22a-tetradecahydro-8H-7,10-methanocyclopropa[18,19][1,10,3,6] dioxadiazacyclononadecino [11,12-b]quinoline-8-carboxamide] | 0.12 | 1.3 |  | 
7 | C=C[C@@H]1C[C@]1(NC(=O)[C@@H]1C[C@@H]2CN1C(=O)[C@H](C(C)(C)C)NC(=O)O[C@@H]1CCC[C@H]1CC/C=C\Cc1c(nc3ccccc3c1OC)O2)C(=O)NS(=O)(=O)C1CC1 [Example 7, (3aR,7S,10S,12R,21Z,24aS)-7-tert-butyl-N-{(1R,2S)-1-[(cyclopropylsulfonyl)carbamoyl]-2-ethenylcyclopropyl}-19-methoxy-5,8-dioxo-1,2,3,3a,5,6,7,8,11,12,20,23,24,24a-tetradecahydro-10H-9,12-methanocyclopenta[18,19][1,10,3,6] dioxadiazacyclononadecino[11,12-b]quinoline-10-carboxamide] | 0.76 | 17 |  | 
8 | C=C[C@@H]1C[C@]1(NC(=O)[C@@H]1C[C@@H]2CN1C(=O)[C@H](C(C)(C)C)NC(=O)O[C@@H]1CCC[C@H]1CCCCCc1c(nc3ccccc3c1OCCN1CCCC1)O2)C(=O)NS(=O)(=O)C1(COC)CC1 [Example 102, (3aR,7S,10S,12R,24aR)-7-tert-butyl-N-[(1R,2S)-2-ethenyl-1-({[1-(methoxymethyl)cyclopropyl]sulfonyl}carbamoyl)cyclopropyl]-5,8-dioxo-19-[2-(pyrrolidin-1-yl)ethoxy]-1,2,3,3a, 5,6,7,8,11,12,20,21,22,23,24,24a-hexadecahydro-10H-9,12-methanocyclopenta[18,19] [1,10,3,6]dioxadiazacyclo-nonadecino[11,12-b]quinoline-10-carboxamide] | 0.21 | 3.2 |  | 
9 | C=C[C@@H]1C[C@]1(NC(=O)[C@@H]1C[C@@H]2CN1C(=O)[C@H](C(C)(C)C)NC(=O)O[C@@H]1C[C@H]1CCCCCc1c(nc3ccccc3c1OCCCNC1CCCC1)O2)C(=O)NS(=O)(=O)C1(C)CC1 [Example 182, (1aR,5S,8S,10R,22aR)-5-tert-butyl-17-[3-(cyclopentylamino)propoxy]-N-[(1R,2S)-2-ethenyl-1-{[(1-methylcyclopropyl)sulfonyl]carbamoyl}cyclopropyl]-3,6-dioxo-1,1a,3,4,5,6,9,10, 18,19,20,21,22,22a-tetradecahydro-8H-7,10-methanocyclopropa[18,19][1,10,3,6] dioxadiazacyclononadecino[11,12-b] quinoline-8-carboxamide] | 0.064 | 0.61 |  | 
10 | C=C[C@@H]1C[C@]1(NC(=O)[C@@H]1C[C@@H]2CN1C(=O)[C@H](C1CCCC1)NC(=O)O[C@@H]1CCC[C@H]1CC/C=C/Cc1c(nc3ccccc3c1OCCCN1CCCC(F)(F)C1)O2)C(=O)NS(=O)(=O)C1(C)CC1 [Example 83, (3aR,7S,10S,12R,21E,24aS)-7-cyclo pentyl-19-[3-(3,3-difluoropiperidin-1-yl)propoxy]-N-[(1R,s)-2-ethenyl-1-{[(1-methylcyclopropyl)sulfonyl]carbamoyl}cyclopropyl]-5,8-dioxo-1,2,3,3a,5,6,7,8,11,12,20,23,24,24a-tetradecahydro-10H-9,12-methanocyclopenta[18,19] [1,10,3,6]dioxadiazacyclononadecino [11,12-b]quinoline-10-carboxamide] | 1.1 | 23 |  | 
11 | C=C[C@@H]1C[C@]1(NC(=O)[C@@H]1C[C@@H]2CN1C(=O)[C@H](C1CCCC1)NC(=O)O[C@@H]1CCC[C@H]1CC/C=C/Cc1c(nc3ccccc3c1OC)O2)C(=O)NS(=O)(=O)C1CC1 [Example 4, (3aR,7S,10S,12R,21E,24aS)-7-cyclo pentyl-N-{(1R,2S)-1-[(cyclopropylsulfonyl)carbamoyl]-2-ethenylcyclopropyl}-19-methoxy-5,8-dioxo-1,2,3,3a,5,6,7,8,11,12,20,23,24,24a-tetradeca hydro-10H-9,12-methanocyclopenta[18,19][1,10,3,6] dioxadiazacyclononadecino[11,12-b]quinoline-10-carboxamide] | 0.11 | 3.4 |  | 
12 | C=C[C@@H]1C[C@]1(NC(=O)[C@@H]1C[C@@H]2CN1C(=O)[C@H](C1CCCC1)NC(=O)O[C@@H]1CCC[C@H]1CC/C=C/Cc1c(nc3ccccc3c1OCCN(C)C)O2)C(=O)NS(=O)(=O)C1CC1 [Example 82, (3aR,7S,10S,12R,21E,24aS)-7-cyclo pentyl-N-{(1R,2S)-1-[(cyclopropylsulfonyl)carbamoyl]-2-ethenylcyclopropyl}-19-[2-(dimethylamino)ethoxy]-5,8-dioxo-1,2,3,3a,5,6,7,8,11,12,20,23, 24,24a-tetradecahydro-10H-9,12-methanocyclopenta[18,19] [1,10,3,6]dioxadiazacyclononadecino [11,12-b]quinoline-10-carboxamide] | 0.18 | 2.5 |  | 
13 | C=C[C@@H]1C[C@]1(NC(=O)[C@@H]1C[C@@H]2CN1C(=O)[C@H](C(C)(C)C)NC(=O)O[C@@H]1C[C@H]1CCCCCc1c(nc3ccccc3c1OC1CC3CCC(C1)N3)O2)C(=O)NS(=O)(=O)C1(C)CC1 (single isomer, unassigned) [Example 274] |  | 0.094 | 0.015 | 0.015
14 | C=C[C@@H]1C[C@]1(NC(=O)[C@@H]1C[C@@H]2CN1C(=O)[C@H](C1CCCCC1)NC(=O)O[C@@H]1C[C@H]1CCCCCc1c(nc3c(F)cccc3c1OC1CCN(C)CC1)O2)C(=O)NS(=O)(=O)C1(C)CC1 [Example 286, (1aR,5S,8S,10R,22aR)-5-cyclohexyl-N-[(1R,2S)-2-ethenyl-1-{[(1-methylcyclopropyl)sulfonyl]carbamoyl}cyclopropyl]-13-fluoro-17-[(1-methylpiperidin-4-yl)oxy]-3,6-dioxo-1,1a,3,4,5,6,9,10,18,19,20,21,22,22a-tetradecahydro-8H-7,10-methanocyclopropa[18,19][1,10,3,6]dioxadiazacyclononadecino[11,12-b]quinoline-8-carboxamide] |  | 0.515 | 0.022 | 0.094
